Assay results published in paper PMC9879382 (Prostaglandins & other lipid mediators, 2022).
Like-named read-outs stand apart in the source and are kept apart here.

How the values were obtained:
[1] = Microsomal liver stability assay, mouse; type: in vitro ADME; conditions: pH 7.4
[2] = molecular target: T1, mouse sEH (Mus musculus, UniProt P34914); assay: sEH inhibition assay; type: biochemical
T1 sequence (P34914 1-554): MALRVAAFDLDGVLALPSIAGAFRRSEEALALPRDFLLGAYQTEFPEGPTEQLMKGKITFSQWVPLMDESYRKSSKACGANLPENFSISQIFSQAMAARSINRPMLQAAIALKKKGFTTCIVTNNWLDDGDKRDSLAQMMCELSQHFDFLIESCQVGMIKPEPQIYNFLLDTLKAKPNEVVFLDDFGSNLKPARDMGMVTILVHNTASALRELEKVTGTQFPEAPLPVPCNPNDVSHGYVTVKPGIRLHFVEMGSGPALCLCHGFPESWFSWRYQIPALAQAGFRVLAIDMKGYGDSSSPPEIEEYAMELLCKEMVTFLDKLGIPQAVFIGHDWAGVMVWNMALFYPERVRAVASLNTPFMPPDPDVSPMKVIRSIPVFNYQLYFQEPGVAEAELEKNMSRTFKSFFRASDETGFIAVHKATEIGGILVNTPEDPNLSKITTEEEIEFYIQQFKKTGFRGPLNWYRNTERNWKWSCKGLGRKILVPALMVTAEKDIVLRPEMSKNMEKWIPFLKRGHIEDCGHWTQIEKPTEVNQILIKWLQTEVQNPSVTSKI

[3] = Microsomal liver stability assay, rat; type: in vitro ADME; conditions: both, pH 7.4
[4] = Microsomal liver stability assay, human; type: in vitro ADME; conditions: pH 7.4
[5] = molecular target: T2, human sEH (Homo sapiens, UniProt P34913); assay: sEH inhibition assay; type: biochemical; conditions: CMNPC 5 μM, pH 7.4, 30 °C
T2 sequence (P34913 1-555): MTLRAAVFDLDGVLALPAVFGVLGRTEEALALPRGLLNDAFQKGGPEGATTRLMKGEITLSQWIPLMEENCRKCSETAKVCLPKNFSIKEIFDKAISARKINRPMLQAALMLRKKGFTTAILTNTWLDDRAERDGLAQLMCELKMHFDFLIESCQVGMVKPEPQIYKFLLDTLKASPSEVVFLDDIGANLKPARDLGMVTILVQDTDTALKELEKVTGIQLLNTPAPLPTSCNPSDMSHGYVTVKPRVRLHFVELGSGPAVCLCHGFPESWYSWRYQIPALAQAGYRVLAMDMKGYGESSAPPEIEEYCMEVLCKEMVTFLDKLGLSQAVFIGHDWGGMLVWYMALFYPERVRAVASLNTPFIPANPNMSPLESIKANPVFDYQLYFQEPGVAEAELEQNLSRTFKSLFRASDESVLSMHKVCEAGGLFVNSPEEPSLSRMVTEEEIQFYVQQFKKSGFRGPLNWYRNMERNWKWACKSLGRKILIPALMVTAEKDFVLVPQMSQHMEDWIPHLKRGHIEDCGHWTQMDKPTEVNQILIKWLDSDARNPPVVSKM

[6] = molecular target: T3, human FAAH (Homo sapiens, UniProt O00519); assay: FAAH inhibition assay; type: biochemical; conditions: OMP 50 μM, pH 8, 37 °C
T3 sequence (O00519 1-579): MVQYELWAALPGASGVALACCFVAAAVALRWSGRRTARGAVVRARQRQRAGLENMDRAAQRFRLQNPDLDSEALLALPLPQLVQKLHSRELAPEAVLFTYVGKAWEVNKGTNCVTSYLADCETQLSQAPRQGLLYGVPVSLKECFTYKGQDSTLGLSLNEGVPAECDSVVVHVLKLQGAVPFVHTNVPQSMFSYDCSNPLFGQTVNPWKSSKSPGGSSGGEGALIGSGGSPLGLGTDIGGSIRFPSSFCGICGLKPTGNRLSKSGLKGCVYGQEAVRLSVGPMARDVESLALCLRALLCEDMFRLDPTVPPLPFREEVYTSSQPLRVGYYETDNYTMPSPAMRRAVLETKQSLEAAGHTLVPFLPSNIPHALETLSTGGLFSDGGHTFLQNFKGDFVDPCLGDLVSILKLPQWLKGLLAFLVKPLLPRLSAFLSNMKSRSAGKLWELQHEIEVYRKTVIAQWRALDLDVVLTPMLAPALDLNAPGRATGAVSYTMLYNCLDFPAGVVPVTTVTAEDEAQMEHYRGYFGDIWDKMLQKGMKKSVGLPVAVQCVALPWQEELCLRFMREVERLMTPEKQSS

[7] = molecular target: T4, rat sEH (Rattus norvegicus, UniProt P80299); assay: sEH inhibition assay; type: biochemical
T4 sequence (P80299 1-554): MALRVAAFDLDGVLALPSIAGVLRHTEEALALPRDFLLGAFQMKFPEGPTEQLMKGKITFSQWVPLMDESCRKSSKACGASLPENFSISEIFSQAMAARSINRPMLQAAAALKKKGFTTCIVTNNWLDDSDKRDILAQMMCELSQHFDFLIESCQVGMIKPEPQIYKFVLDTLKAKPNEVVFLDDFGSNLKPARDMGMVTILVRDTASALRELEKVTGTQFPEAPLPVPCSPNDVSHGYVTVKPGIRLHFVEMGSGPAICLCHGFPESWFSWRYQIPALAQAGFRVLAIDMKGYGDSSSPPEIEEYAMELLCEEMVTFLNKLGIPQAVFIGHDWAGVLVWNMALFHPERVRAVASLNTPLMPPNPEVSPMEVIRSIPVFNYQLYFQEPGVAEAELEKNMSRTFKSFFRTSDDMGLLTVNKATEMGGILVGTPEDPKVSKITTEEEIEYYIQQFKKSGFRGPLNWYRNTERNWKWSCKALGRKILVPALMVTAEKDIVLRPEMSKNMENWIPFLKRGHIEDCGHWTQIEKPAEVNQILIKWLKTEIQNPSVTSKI

[8] = Human sEH IC50, human recombinant sEH
[9] = Human FAAH IC50, human recombinant FAAH
[10] = read-out: Rat sEH IC50, rat sEH, CMNPC 5 μM, pH 7.4, 30 °C

| Structure (SMILES) | IC50 [2] [nM] | IC50 [5, 8] [nM] | IC50 [6, 9] [µM] | IC50 [7] [nM] | further results |
| --- | --- | --- | --- | --- | --- |
| O=C(Nc1ccc(-c2nc3ccccc3s2)cc1)C1CCN(S(=O)(=O)c2ccccc2C(F)(F)F)CC1 [Compound 7a, N-(4-(benzo[d]thiazol-2-yl)phenyl)-1-((2-(trifluoromethyl)phenyl)sulfonyl)piperidine-4-carboxamide] | 7210 | 3.1 | 0.0097 | 5.7 | half-life at 1 μM ([1]; mouse liver microsomes): 15.8 min; microsomal CLint at 1 μM ([1]; mouse liver microsomes): 87 µL/min/mg; half-life at 1 μM ([3]; rat liver microsomes): 14.7 min; microsomal CLint at 1 μM ([3]; rat liver microsomes): 94 µL/min/mg; half-life at 1 μM ([4]; human liver microsomes): 24 min; microsomal CLint at 1 μM ([4]; human liver microsomes): 57 µL/min/mg |
| N#Cc1ccccc1S(=O)(=O)N1CCC(C(=O)Nc2ccc(-c3nc4ccccc4s3)cc2)CC1 [Compound 7b, N-(4-(benzo[d]thiazol-2-yl)phenyl)-1-((2-cyanophenyl)sulfonyl)piperidine-4-carboxamide] | 578 | 19.5 | 0.287 | 185 |  |
| O=C(Nc1ccc(-c2nc3ccccc3s2)cc1)C1CCN(S(=O)(=O)c2cccc(C(F)(F)F)c2)CC1 [Compound 7c, N-(4-(benzo[d]thiazol-2-yl)phenyl)-1-((3-(trifluoromethyl)phenyl)sulfonyl)piperidine-4-carboxamide] | 4310 | 89.3 | 0.0223 | 124 |  |
| O=C(Nc1ccc(-c2nc3ccccc3s2)cc1)C1CCN(S(=O)(=O)c2ccc(C(F)(F)F)cc2)CC1 [Compound 7d, N-(4-(benzo[d]thiazol-2-yl)phenyl)-1-((4-(trifluoromethyl)phenyl)sulfonyl)piperidine-4-carboxamide] | 9180 | 51.5 | 0.0481 | 28.9 |  |
| O=C(Nc1ccc(-c2nc3ccccc3s2)cc1)C1CCN(S(=O)(=O)c2ccc([N+](=O)[O-])cc2)CC1 [Compound 7e, N-(4-(benzo[d]thiazol-2-yl)phenyl)-1-((4-nitrophenyl)sulfonyl)piperidine-4-carboxamide] | > 10000 |  |  | 4480 |  |
| O=C(Nc1ccc(-c2nc3ccccc3s2)cc1)C1CCN(S(=O)(=O)c2ccc(F)cc2Cl)CC1 [Compound 7f, N-(4-(benzo[d]thiazol-2-yl)phenyl)-1-((2-chloro-4-fluorophenyl)sulfonyl)piperidine-4-carboxamide] | 267 | 16.9 | 0.0191 | 116 |  |
| O=C(Nc1ccc(-c2nc3ccccc3s2)cc1)C1CCN(S(=O)(=O)c2ccc(C(F)(F)F)cc2Cl)CC1 [Compound 7g, N-(4-(benzo[d]thiazol-2-yl)phenyl)-1-((2-chloro-4-(trifluoromethyl)phenyl)sulfonyl) piperidine-4-carboxamide] |  |  |  |  | IC50 ([2]; read-out: Mouse sEH IC50, mouse sEH, CMNPC 5 μM, pH 7.4, 30 °C): 9060 nM; IC50 ([5]; read-out: Human sEH IC50, human recombinant sEH): 432 nM; IC50 ([6]; read-out: Human FAAH IC50, human recombinant FAAH): 0.0266 µM; IC50 [7, 10]: 859 nM |
| O=C(Nc1ccc(-c2nc3ccccc3s2)cc1)C1CCN(S(=O)(=O)c2ccc(F)cc2Br)CC1 [Compound 7h, N-(4-(benzo[d]thiazol-2-yl)phenyl)-1-((2-bromo-4-fluorophenyl)sulfonyl)piperidine-4-carboxamide] | 402 | 8.2 | 0.0289 | 11.8 |  |
| O=C(Nc1ccc(-c2nc3ccccc3s2)cc1)C1CCN(S(=O)(=O)c2cc(C(F)(F)F)cc(C(F)(F)F)c2)CC1 [Compound 7j, N-(4-(benzo[d]thiazol-2-yl)phenyl)-1-((3,5-bis(trifluoromethyl)phenyl)sulfonyl)piperidine-4-carboxamide] | > 10000 | 4840 | 0.0419 | 2910 |  |
| O=C(Nc1ccc(-c2nc3ccccc3s2)cc1)C1CCN(S(=O)(=O)c2c(Cl)cc(Br)cc2Cl)CC1 [Compound 7k, N-(4-(benzo[d]thiazol-2-yl)phenyl)-1-((4-bromo-2,6-dichlorophenyl)sulfonyl)piperidine-4-carboxamide] | 1790 | 41 | 0.0897 | 42.5 |  |
| C[C@]12CC[C@H]3[C@@H](CCC4=CC(=O)CC[C@@]43C)[C@@H]1CC[C@@H]2O [Testosterone (control), testosterone, reference compound] |  |  |  |  | microsomal CLint at 1 μM ([1]; microsomes): 280 µL/min/mg; half-life at 1 μM ([3]; microsomes): 1.1 min; microsomal CLint at 1 μM ([3]; microsomes): 1250 µL/min/mg; microsomal CLint at 1 μM ([4]; microsomes): 61 µL/min/mg |
| O=C(Nc1ccc(OC(F)(F)F)cc1)NC1CCC(Oc2ccc(C(=O)O)cc2)CC1 (stereo not shown) [t-TUCB, reference compound] |  |  |  |  | IC50 [7, 10]: 9.3 nM |
